In US11760773B2, “Small molecule drug conjugates of gemcitabine monophosphate” (MaveriX Oncology, Inc., priority 2018, dated 2023):
Counter-ions that a name gives are not always drawn. Like-named read-outs stand apart in the source and are kept apart here.

Assays:
[1] = system: UT-SCC-10; experiment: Tumor cell proliferation (alamarBlue) cytotoxicity assay, UT-SCC-10; assay type: cell-based, human
Experimental: (§1) A tumor cell proliferation assay was used to determine cytotoxicity IC50 values for the phosphate prodrug Compounds 1-9, the parent non-phosphorylated SMDC parent compounds, and the effector (gemcitabine) across eight primary early-passage human head and neck squamous cell carcinoma cell lines including UT-SCC-5, UT-SCC-8, UT-SCC-9, UT-SCC-10, UT-SCC-14, UT-SCC-16A, UT-SCC-16B, and UT-SCC-24A.
(§2) UTSCC cells were seeded at 4000 cells/100 I/well on 96-well black clear-bottom tissue culture plate. Cells were incubated at 37° C. and 5% CO2 overnight to allow them to recover and re-attach. The next day cells were treated with the test compound (0-100 μM) for 72 hours. After treatment, cell proliferation was measured by Fluorescent quantitation of alamarBlue reagent. The alamarBlue assay incorporates a fluorometric/colorimetric growth indicator based on detection of metabolic activity. Specifically, resazurin, the active ingredient of alamarBlue reagent, is blue in color and virtually non-fluorescent. Upon entering cells, resazurin is reduced to resorufin, a compound that is red in color and highly fluorescent.
(§3) Continued cell growth maintains a reduced environment, therefore increasing the overall fluorescence and color of the media surrounding cells. The fluorescence intensity of alamarBlue reagent was directly proportional to cell number. To perform the alamarBlue assay, 10 I of alamarBlue reagent was added to each well and the plate was incubated at 37° C. for an additional 2 hour. Fluorescence intensity was measured at an excitation of 530 nm and an emission of 590 nm using a BioTek Synergy™ 2 microplate reader.
(§4) Cell proliferation assays in triplicate were performed at each concentration. The fluorescent intensity data were analyzed using the computer software, Graphpad Prism. In the absence of the compound, the fluorescent intensity (Ft) in each data set was defined as 100%. In the absence of cells, the fluorescent intensity (Fb) in each data set was defined as 0%. The percent cell in the presence of each compound was calculated according to the following equation: % cell=(F−Fb)/(Ft−Fb), where F=the fluorescent intensity in the presence of the compound, Fb=the fluorescent intensity in the absence of cells, and Ft=the fluorescent intensity in the absence of the compound. The values of % cell versus a series of compound concentrations were then plotted using non-linear regression analysis of Sigmoidal dose-response curve generated with the equation Y=B+(T−B)/1+10^((Log EC50-X)×Hill Slope) where Y=percent cell, B=minimum percent cell, T=maximum percent cell, X=logarithm of compound and Hill Slope=slope factor or Hill coefficient. The IC50 value was determined by the concentration causing a half-maximal percent activity.

[2] = system: UT-SCC-14; experiment: Tumor cell proliferation (alamarBlue) cytotoxicity assay, UT-SCC-14; assay type: cell-based, human
Experimental: as §1, §2, §3, §4

[3] = Solubility / formulation; assay type: physicochemical; details: water; read-out: soluble in water
[4] = Compound 1 and gemcitabine plasma PK in the male cynomolgus monkey (study h); assay type: in vivo
Experimental: Objectives: to compare the plasma pharmacokinetics and stability of the Compound 1 with Int 1-4 and in plasma following a single intravenous infusion administration of Compound 1 at 5 mg/kg and 10 mg/kg with equimolar gemcitabine at 2.28 mg/kg in male cynomolgous monkeys.
PK measurements: compare PK parameters C0, CL, Vdss, Cmax, tmax, t1/2, AUC(0-t), AUC(0-inf), MRT(0-t), MRT(0-inf) for Compound 1 and Int 1-4 with gemcitabine.

[5] = system: UT-SCC-5; experiment: Tumor cell proliferation (alamarBlue) cytotoxicity assay, UT-SCC-5; assay type: cell-based, human
Experimental: as §1, §2, §3, §4

[6] = Comparative plasma PK of Compound 1 versus Int 1-4 in male CD-1 mice (study b); assay type: in vivo; details: male, CD-1, mouse, iv; for AUC(0-inf): read-out: AUC0-inf; for MRT inf: read-out: MRT0-inf; for MRT last: read-out: MRT0-last; for Vd: read-out: Vdss
Experimental: Objectives: to compare the plasma pharmacokinetics and stability of Compound 1 with its non-phosphorylated SMDC analog (Int 1-4) and in plasma following a single intravenous infusion administration of Compound 1 at 11.6 mg/kg and 23.2 mg/kg with Int 1-4 (formulation F1 & F2) at 10.0 mg/kg in male CD-1 mice
PK measurements: compare PK parameters C0, CL, Vdss, Cmax, tmax, t1/2, AUC(0-t), AUC(0-inf), MRT(0-t), MRT(0-inf) for Compound 1 and Int 1-4

[7] = system: UT-SCC-16B; experiment: Tumor cell proliferation (alamarBlue) cytotoxicity assay, UT-SCC-16B; assay type: cell-based, human
Experimental: as §1, §2, §3, §4

[8] = system: UT-SCC-8; experiment: Tumor cell proliferation (alamarBlue) cytotoxicity assay, UT-SCC-8; assay type: cell-based, human
Experimental: as §1, §2, §3, §4

[9] = Mouse plasma stability (Compound 1); assay type: in vitro ADME
[10] = system: primary head and neck squamous cell carcinoma cell lines; experiment: Cytotoxicity, average over the eight UT-SCC cell lines; assay type: cell-based, human
Experimental: as §1
UTSCC cells were seeded at 4000 cells/100 I/well on 96-well black clear-bottom tissue culture plate. Cells were incubated at 37° C. and 5% CO2 overnight to allow them to recover and re-attach. The next day cells were treated with the test compound (0-100 μM) for 72 hours. After treatment, cell proliferation was measured by Fluorescent quantitation of alamarBlue reagent. […]
as §3, with “To perform the alamarBlue assay, 10 I of alamarBlue reagent was added to each well and the plate was incubated at 37° C. for an additional 2 hour.” left out
Cell proliferation assays in triplicate were performed at each concentration. The fluorescent intensity data were analyzed using the computer software, Graphpad Prism. […] The IC50 value was determined by the concentration causing a half-maximal percent activity.

[11] = system: UT-SCC-16A; experiment: Tumor cell proliferation (alamarBlue) cytotoxicity assay, UT-SCC-16A; assay type: cell-based, human
Experimental: as §1, §2, §3, §4

[12] = system: UT-SCC-24A; experiment: Tumor cell proliferation (alamarBlue) cytotoxicity assay, UT-SCC-24A; assay type: cell-based, human
Experimental: as §1, §2, §3, §4

[13] = system: UT-SCC-9; experiment: Tumor cell proliferation (alamarBlue) cytotoxicity assay, UT-SCC-9; assay type: cell-based, human
Experimental: as §1, §2, §3, §4

[14] = plasma, after iv Compound 1 5 mg/kg
[15] = 11.6 mg/kg, after iv Compound 1 11.6 mg/kg
[16] = 23.2 mg/kg, after iv Compound 1 23.2 mg/kg
[17] = Homo sapiens, 72 hours treatment

solubility [3]: > 300 mg/mL
VDss fold lower than Int 1-4 [4]: 10 fold
AUC(0-t) [4, 14]: 1830 ng·h/mL
C0 [4, 14]: 139000 ng/mL
clearance [4, 14]: 46.5 mL/min/kg
half-life [4, 14]: 36 s
MRT inf ([4]; plasma, after iv Compound 1 5 mg/kg, read-out: MRT0-inf): 36 s
MRT last ([4]; plasma, after iv Compound 1 5 mg/kg, read-out: MRT0-last): 36 s
Vd ([4]; plasma, after iv Compound 1 5 mg/kg, read-out: Vdss): 0.0357 L/kg
AUC(0-t) [6, 15]: 202 ng·h/mL
C0 [6, 15]: 21900 ng/mL
clearance [6, 15]: 1970 mL/min/kg
half-life [6, 15]: 52.9 s
AUC(0-inf) [6, 15]: 202 ng·h/mL
MRT inf [6, 15]: 39.2 s
MRT last [6, 15]: 38.9 s
Vd [6, 15]: 1.41 L/kg
AUC(0-t) [6, 16]: 103 ng·h/mL
C0 [6, 16]: 2330 ng/mL
clearance [6, 16]: 5190 mL/min/kg
half-life [6, 16]: 131 s
AUC(0-inf) [6, 16]: 105 ng·h/mL
MRT inf [6, 16]: 164 s
MRT last [6, 16]: 153 s
Vd [6, 16]: 12 L/kg
stability in mouse plasma [9]: stable
Slope Mean ± SE ([9]; 3 μM, 37° C.): 0.00413 ± 0.000752
SMILES: COc1cc(OC)c2oc(COC(=O)Nc3ccn([C@@H]4O[C@H](COP(=O)(O)O)[C@@H](O)C4(F)F)c(=O)n3)cc2c1 [Compound 1, ((2R,3R,5R)-5-(4-((((5,7-dimethoxybenzofuran-2-yl)methoxy)carbonyl)-amino)-2-oxopyrimidin-1(2H)-yl)-4,4-difluoro-3-hydroxytetrahydrofuran-2-yl)methyl hydrogen phosphate triethyl ammonium salt]
IC50 ([1]; Homo sapiens, UT-SCC-10, 72 hours treatment): 14 nM
Cytotoxicity IC50 ratio Compound 1/Int 1-4 ([1]; UT-SCC-10): 1.6
Cytotoxicity IC50 ratio Compound 1/gemcitabine ([1]; UT-SCC-10): 1.6
IC50 ([2]; Homo sapiens, UT-SCC-14, 72 hours treatment): 13 nM
Cytotoxicity IC50 ratio Compound 1/Int 1-4 ([2]; UT-SCC-14): 1.0
Cytotoxicity IC50 ratio Compound 1/gemcitabine ([2]; UT-SCC-14): 2.2
IC50 ([5]; Homo sapiens, UT-SCC-5, 72 hours treatment): 24 nM
Cytotoxicity IC50 ratio Compound 1/Int 1-4 ([5]; UT-SCC-5): 1.5
Cytotoxicity IC50 ratio Compound 1/gemcitabine ([5]; UT-SCC-5): 2.7
Cytotoxicity IC50 ratio Compound 1/Int 1-4 [7]: 0.8
Cytotoxicity IC50 ratio Compound 1/gemcitabine [7]: 1.3
IC50 [7, 17]: 130 nM
IC50 ([8]; Homo sapiens, UT-SCC-8, 72 hours treatment): 23 nM
Cytotoxicity IC50 ratio Compound 1/Int 1-4 ([8]; UT-SCC-8): 0.7
Cytotoxicity IC50 ratio Compound 1/gemcitabine ([8]; UT-SCC-8): 1.0
average ratio of cytotoxicity IC50 values Compound 1/Int 1-4 [10]: ~1
average ratio of cytotoxicity IC50 values Compound 1/gemcitabine [10]: ~1.6
Cytotoxicity IC50 ratio Compound 1/Int 1-4 [11]: 0.5
Cytotoxicity IC50 ratio Compound 1/gemcitabine [11]: 1.2
IC50 [11, 17]: 73 nM
Cytotoxicity IC50 ratio Compound 1/Int 1-4 [12]: 0.9
Cytotoxicity IC50 ratio Compound 1/gemcitabine [12]: 1.3
IC50 [12, 17]: 18 nM
IC50 ([13]; Homo sapiens, UT-SCC-9, 72 hours treatment): 53 nM
Cytotoxicity IC50 ratio Compound 1/Int 1-4 ([13]; UT-SCC-9): 1.4
Cytotoxicity IC50 ratio Compound 1/gemcitabine ([13]; UT-SCC-9): 1.5
